Laboratory results as given in patent US11866414B2, “Substituted heterocyclic compounds” (BRISTOL-MYERS SQUIBB COMPANY, priority 2021, dated 2024).
Like-named read-outs stand apart in the source and are kept apart here.

Key:
[1] = Brain penetration in vivo assay (brain and plasma exposure); settings: C57BL6, brain / plasma, 10 mg/kg, mouse, 10 mpk, po, read-out: Ratio of exposure in brain to plasma (mouse) (1 h, 10 mpk, po)
Method: Brain Penetration In Vivo Assay
A pharmacokinetic study was performed using C57BL6 wild-type mice (n=3 per experiment) to determine brain and plasma exposure of compounds of the invention. The compound was administered orally in a solution of 5% ETHANOL: 90% PEG 300; 5% TPGS at 5 mL/kg for a final concentration of 10 mg/kg. Nice were euthanized 1 hour post-dose and plasma and brain were collected and frozen for analysis. Brain tissues were homogenized in a 1:1 volume of blank C57BL6 mouse plasma. Concentrations of the compound in plasma and brain homogenate were determined by LC-MS analysis.

[2] = in vitro; settings: human, Caco-2, pH 7.4
[3] = test system: IFNα-induced STAT phosphorylation (pSTAT5); assay: IFNα-induced STAT phosphorylation in human whole blood; format: cell-based; settings: 1 h compound, 1000 U/mL IFNα A/D 15 min, CD3 positive population, read-out: Human Whole blood IFNa pSTAT5 IC50
Method: IFNα-Induced STAT Phosphorylation in Human Whole Blood
After an hour long incubation with compound, human whole blood (drawn with ACD-A as anticoagulant) was stimulated with 1000 U/mL recombinant human IFNα A/D (R&D Systems 11200-2) for 15 min. The stimulation was stopped by adding Fix/Lyse buffer (BD 558049). Cells were stained with a CD3 FITC antibody (BD 555916), washed, and permeabilized on ice using Perm III buffer (BD 558050). Cells were then stained with an Alexa-Fluor 647 pSTAT5 (pY694) antibody (BD 612599) for 60 min prior to analysis on the iQue Plus. The amount of pSTAT5 expression was quantitated by median fluorescence intensity after gating on the CD3 positive population.

SMILES	Kp at 1 h ([1]; Table 4, comparison of CNS penetration with prior art)	Kp at 1 h [1]	Papp A→B at 2 h, 3 μM [2] [×10⁻⁶ cm/s]	efflux ratio at 2 h, 3 μM [2]	IC50 [3] [nM]
[2H]C([2H])([2H])NC(=O)c1nnc(NC(=O)C2CC2)cc1Nc1cccc(-c2ncn(C3CC3)n2)c1OC [B, reference compound]	0.02	–	–	–	–
[2H]C([2H])([2H])NC(=O)c1nnc(NC(=O)C2CC2)cc1Nc1cccc(-c2cnn(CC)n2)c1OC [Example 1, 6-(cyclopropanecarboxamido)-4-((2-methoxy-3-(2-ethyl-2H-1,2,3-triazol-4-yl)phenyl)amino)-N-(methyl-d3)pyridazine-3-carboxamide]	–	0.7	29.1	0.8	260
[2H]C([2H])([2H])NC(=O)c1nnc(NC(=O)C2CC2)cc1Nc1cc(F)cc(-c2cnn(C)n2)c1OC [Example 4, 6-cyclopropaneamido-4-{[5-fluoro-2-methoxy-3-(2-methyl-2H-1,2,3-triazol-4-yl)phenyl]amino}-N—(^2H3)methylpyridazine-3-carboxamide]	–	0.8	32.7	0.6	290
[2H]C([2H])([2H])NC(=O)c1nnc(Nc2ccc(OC)nn2)cc1Nc1cccc(-c2cnn(C)n2)c1OC [Example 5, 4-{[2-methoxy-3-(2-methyl-2H-1,2,3-triazol-4-yl)phenyl]amino}-6-[(6-methoxypyridazin-3-yl)amino]-N—(^2H3)methylpyridazine-3-carboxamide]	–	0.2	20.9	0.9	60
[2H]C([2H])([2H])NC(=O)c1nnc(NC(=O)C2CC2)cc1Nc1cc(C)cc(-c2cnn(C3CC3)n2)c1OC [Example 9, 6-cyclopropaneamido-4-{[3-(2-cyclopropyl-2H-1,2,3-triazol-4-yl)-2-methoxy-5-methylphenyl]amino}-N—(^2H3)methylpyridazine-3-carboxamide]	–	0.2	14	0.3	100
[2H]C([2H])([2H])NC(=O)c1nnc(NC(=O)C2CC2)cc1Nc1cccc(-c2cnn(C3CC3)n2)c1OC [Example 11, 6-cyclopropaneamido-4-{[3-(2-cyclopropyl-2H-1,2,3-triazol-4-yl)-2-methoxyphenyl]amino}-N—(^2H3)methylpyridazine-3-carboxamide]	–	0.5	9.7	0.7	120
[2H]C([2H])([2H])NC(=O)c1nnc(NC(=O)C2CC2)cc1Nc1cc(OC)cc(-c2cnn(C)n2)c1OC [Example 24, 6-(cyclopropane-carboxamido)-4-((2,5-dimethoxy-3-(2-methyl-2H-1,2,3-triazol-4-yl)phenyl)amino)-N-(methyl-d3)pyridazine-3-carboxamide]	–	0.2	33	0.5	120
[2H]C([2H])([2H])NC(=O)c1nnc(N2CCN(C(C)C)C2=O)cc1Nc1cccc(-c2cnn(C)n2)c1OC [Example 50, 6-(3-isopropyl-2-oxoimidazolidin-1-yl)-4-((2-methoxy-3-(2-methyl-2H-1,2,3-triazol-4-yl)phenyl)amino)-N-(methyl-d3)pyridazine-3-carboxamide]	–	–	26.5	0.4	170
[2H]C([2H])([2H])NC(=O)c1nnc(Nc2ccccn2)cc1Nc1nccc(-c2cnn(C)n2)c1OC [Example 63, 4-((3-methoxy-4-(2-methyl-2H-1,2,3-triazol-4-yl)pyridin-2-yl)amino)-N-(methyl-d3)-6-(pyridin-2-ylamino)pyridazine-3-carboxamide]	–	–	3.9	< 0.4	20
[2H]C([2H])([2H])NC(=O)c1nnc(Nc2cc(C)nc(C)n2)cc1Nc1nccc(-c2cnn(C)n2)c1OC [Example 64, 6-[(2,6-dimethylpyrimidin-4-yl)amino]-4-{[3-methoxy-4-(2-methyl-2H-1,2,3-triazol-4-yl)pyridin-2-yl]amino}-N—(^2H3)methylpyridazine-3-carboxamide]	–	–	1.7	< 0.9	250
[2H]C([2H])([2H])NC(=O)c1nnc(Nc2ccc(C(C)(C)O)cn2)cc1Nc1nccc(-c2cnn(C)n2)c1OC [Example 65, 6-{[5-(2-hydroxypropan-2-yl)pyridin-2-yl]amino}-4-{[3-methoxy-4-(2-methyl-2H-1,2,3-triazol-4-yl)pyridin-2-yl]amino}-N—(^2H3)methylpyridazine-3-carboxamide]	–	–	11.7	1.6	4
[2H]C([2H])([2H])NC(=O)c1nnc(Nc2ccc(N3CCOCC3)cn2)cc1Nc1nccc(-c2cnn(C)n2)c1OC [Example 66, 4-{[3-methoxy-4-(2-methyl-2H-1,2,3-triazol-4-yl)pyridin-2-yl]amino}-N—(^2H3)methyl-6-{[5-(morpholin-4-yl)pyridin-2-yl]amino}pyridazine-3-carboxamide]	–	–	22.2	0.3	0.2
[2H]C([2H])([2H])NC(=O)c1nnc(Nc2cc(C(C)(C)O)ccn2)cc1Nc1nccc(-c2cnn(C)n2)c1OC [Example 67, 6-{[4-(2-hydroxypropan-2-yl)pyridin-2-yl]amino}-4-{[3-methoxy-4-(2-methyl-2H-1,2,3-triazol-4-yl)pyridin-2-yl]amino}-N—(^2H3)methylpyridazine-3-carboxamide]	–	–	28.6	0.9	86

Further lines, results first:

Kp at 1 h ([1]; Table 4, comparison of CNS penetration with prior art)	Kp at 1 h [1]	Papp A→B at 2 h, 3 μM [2] [×10⁻⁶ cm/s]	efflux ratio at 2 h, 3 μM [2]	IC50 [3] [nM]	SMILES
–	0.8	32.8	0.6	50	[2H]C([2H])([2H])NC(=O)c1nnc(NC(=O)C2CC2)cc1Nc1nccc(-c2cnn(C)n2)c1OC [Example 36, 6-(cyclopropanecarboxamido)-4-((3-methoxy-4-(2-methyl-2H-1,2,3-triazol-4-yl)pyridin-2-yl)amino)-N-(methyl-d3)pyridazine-3-carboxamide]
–	0.1	49.4	0.9	20	[2H]C([2H])([2H])NC(=O)c1nnc(NC(=O)[C@@H]2C[C@@H]2F)cc1Nc1nccc(-c2cnn(C)n2)c1OC [Example 37, 6-((1S,2S)-2-fluorocyclopropane-1-carboxamido)-4-((3-methoxy-4-(2-methyl-2H-1,2,3-triazol-4-yl)pyridin-2-yl)amino)-N-(methyl-d3)pyridazine-3-carboxamide]
–	0.3	33.9	0.5	80	[2H]C([2H])([2H])NC(=O)c1nnc(NC(=O)[C@@H]2C[C@H]2C)cc1Nc1nccc(-c2cnn(C)n2)c1OC [Example 41, 4-((3-methoxy-4-(2-methyl-2H-1,2,3-triazol-4-yl)pyridin-2-yl)amino)-N-(methyl-d3)-6-((1R,2R)-2-methylcyclopropane-1-carboxamido)pyridazine-3-carboxamide]
–	–	81.6	0.4	10	[2H]C([2H])([2H])NC(=O)c1nnc(NC(=O)C2CC2)cc1Nc1nccc(-c2cnn(C([2H])([2H])[2H])n2)c1OC [Example 57, 6-(cyclopropane-carboxamido)-4-((3-methoxy-4-(2-(methyl-d3)-2H-1,2,3-triazol-4-yl)pyridin-2-yl)amino)-N-(methyl-d3)pyridazine-3-carboxamide]
–	–	38.3	0.4	480	[2H]C([2H])([2H])NC(=O)c1nnc(NC(=O)N(C)C)cc1Nc1nccc(-c2cnn(C3CC3)n2)c1OC [Example 61, 4-((4-(2-cyclopropyl-2H-1,2,3-triazol-4-yl)-3-methoxypyridin-2-yl)amino)-6-(3,3-dimethylureido)-N-(methyl-d3)pyridazine-3-carboxamide]
–	–	59.4	0.4	290	[2H]C([2H])([2H])NC(=O)c1nnc(Nc2cc(C)n(C)n2)cc1Nc1nccc(-c2cnn(C)n2)c1OC [Example 68, 6-[(1,5-dimethyl-1H-pyrazol-3-yl)amino]-4-{[3-methoxy-4-(2-methyl-2H-1,2,3-triazol-4-yl)pyridin-2-yl]amino}-N—(^2H3)methylpyridazine-3-carboxamide]
–	–	36.2	0.6	3	[2H]C([2H])([2H])NC(=O)c1nnc(NC(=O)[C@@H]2C[C@@H]2F)cc1Nc1nc(C)cc(-c2cnn(C)n2)c1OC [Example 69, 6-((1S,2S)-2-fluorocyclopropane-1-carboxamido)-4-((3-methoxy-6-methyl-4-(2-methyl-2H-1,2,3-triazol-4-yl)pyridin-2-yl)amino)-N-(methyl-d3)pyridazine-3-carboxamide]
